The values that follow come from patent publication US8933107B2, “Pesticide thiazolyloxy substituted phenylamidine derivatives” (Bayer Cropscience AG, priority 2005, dated 2015).

Data set [1] deals with Puccinia recondita f. Sp. tritici. Put plainly: In vivo preventive test on Puccinia recondita f. Sp. tritici (wheat brown rust). Particulars: topical, 240 h, 1000 ppm of active ingredient, evaluated 10 days after inoculation, read-out: efficacy.
The subject of a further data set is Alternaria solani. Put plainly: In vivo protective test on Alternaria solani (leaf spot of tomato). Particulars: 168 h, 500 ppm of active ingredient, evaluated 7 days after inoculation, read-out: efficacy.
A further data set in a line: physchem. Particulars: reversed-phase HPLC column (C 18).
For data set [2], the system named is Erysiphe graminis f. sp. hordei. As to the kind of experiment: In vivo preventive test on Erysiphe gramini (powdery mildew on barley). Particulars: Blumeria graminis, 168 h, 1000 ppm of active ingredient, evaluated 7 days after inoculation, read-out: efficacy.
Another data set concerns Podosphaera leucotricha. As to the kind of experiment: In vivo protective test on Podosphaera leucotricha (apples). The note with it: topical, 240 h, 100 ppm of active ingredient, evaluated 10 days after inoculation, read-out: efficacy.

Molecules are shown by their SMILES.

One may read the chromatographic logP as a lipophilicity value derived from retention on a column. A high value points to a more lipophilic compound. As for `Cc1cc(Oc2nc(C)c(Cl)s2)c(C)cc1/N=C/N(C)C(C)C` [Compound 1.13], the pest or weed control at 1000 ppm in data set [1] and in data set [2] was no less than 70% in each case. Also, in the data set on Alternaria solani, the pest or weed control at 500 ppm is no less than 70%. For the same compound, in the data set “physchem”, the chromatographic logP amounted to 2.14.
For the compound `Cc1cc(Oc2nc(Cl)cs2)c(C)cc1/N=C/N(C)C(C)C` [Compound 1.14], in the data set with Alternaria solani, the pest or weed control at 500 ppm was no less than 70%. The same compound registered a chromatographic logP in the data set “physchem” of 1.7.
As for `CCN(C)/C=N/c1cc(C)c(Oc2nc(C(C)C)c(Cl)s2)cc1C` [Compound 1.20], the pest or weed control at 1000 ppm in data set [1] and in data set [2] was no less than 70% throughout. The pest or weed control at 500 ppm in the data set on Alternaria solani was no less than 70%. The compound also came in with a chromatographic logP in the data set “physchem” of 2.52.
Regarding `CCN(C)/C=N/c1cc(C)c(Oc2nc(C)c(C(C)=O)s2)cc1C` [Compound 1.27], in the data set with Alternaria solani, the pest or weed control at 500 ppm was no less than 70%. The compound further came in with a chromatographic logP in “physchem” of 1.5.
With `Cc1cc(Oc2nc(Cl)c(Cl)s2)ccc1/N=C/N(C)C(C)C` [Compound 1.28], the pest or weed control at 1000 ppm in data set [1] and in data set [2] was no less than 70% in each case. For the same compound, in the data set “physchem”, the chromatographic logP was determined as 2.09.
For `Cc1cc(Oc2nc(Cl)c(C)s2)c(C)cc1/N=C/N(C)C` [Compound 1.31], the chromatographic logP in “physchem” worked out at 1.69.
Same read-out and setting: the figure for `CCN(C)/C=N/c1ccc(Oc2nc(C)c(C)s2)cc1C` [Compound 1.33] is 1.65; for `Cc1cc(Oc2nc(C)c(C)s2)ccc1/N=C/N(C)C(C)C` [Compound 1.34] it is 1.66; for `CCCc1sc(Oc2cc(C)c(/N=C/N(C)C(C)C)cc2C)nc1C` [Compound 1.35] it is 2.29.
For `CCCc1sc(Oc2cc(C)c(/N=C/N(C)CC)cc2C)nc1C` [Compound 1.36], the chromatographic logP in “physchem” is 2.22.
Same read-out and setting: the figure for `Cc1cc(Oc2nc(C)c(C)s2)c(C)cc1/N=C/N(C)C(C)C` [Compound 1.37] is 1.98.
Still for that read-out and setting: then `CCN(C)/C=N/c1cc(C)c(Oc2nc(C)c(C)s2)cc1C` [Compound 1.38], with 1.87; and `CCN(C)/C=N/c1ccc(Oc2nc(Cl)c(Cl)s2)cc1C` [Compound 1.39], with 1.99.
`CCN(C)/C=N/c1cc(C)c(Oc2nc(C=O)c(Cl)s2)cc1C` [Compound 1.42, N′-{4-[(5-chloro-4-formyl-1,3-thiazol-2-yl)oxy]-2,5-dimethylphenyl}-N-ethyl-N-methylimidoformamide]: the figures for the chromatographic logP in “physchem” and in the data set “physchem” (pH 2.3) were 1.46 and 1.51, respectively.
Taken in the same sequence, the figures for `CCN(C)C=Nc1cc(C)c(Oc2nc(C=NOC(C)(C)C)c(Cl)s2)cc1C` [Compound 1.44, N′-[4-({4-[(tert-butoxyimino)methyl]-5-chloro-1,3-thiazol-2-yl}oxy)-2,5-dimethylphenyl]-N-ethyl-N-methylimidoformamide] were 2.65 and 2.65.
The compound `CCN(C)/C=N/c1cc(C)c(Oc2nc(-c3ccccc3)cs2)cc1C` [Compound 1.60] had a chromatographic logP in the data set “physchem” of 2.18.
Still for that read-out and setting: then `Cc1cc(Oc2nc(-c3ccccc3)cs2)c(C)cc1/N=C/N(C)C(C)C` [Compound 1.61], with 2.25; and `CCN(C)/C=N/c1cc(C)c(Oc2nc(Cl)c(C=O)s2)cc1C` [Compound 1.62], with 1.68.
As for `Cc1cc(Oc2nc(C(C)(C)C)c(Cl)s2)c(C)cc1/N=C/N(C)C(C)C` [Compound 1.64], the pest or weed control at 500 ppm with Alternaria solani was no less than 70%. Moreover, the chromatographic logP in the data set “physchem” was 2.79.
As for `CCN(C)/C=N/c1cc(C)c(Oc2nc(C(C)(C)C)c(Br)s2)cc1C` [Compound 1.71], the pest or weed control at 100 ppm in the data set on Podosphaera leucotricha was no less than 70%. The pest or weed control at 1000 ppm in data set [1] was no less than 70%. Further, the pest or weed control at 500 ppm in the data set with Alternaria solani is no less than 70%. This compound also displayed a chromatographic logP in “physchem” of 2.78.
For the compound `CCN(C)/C=N/c1cc(C)c(Oc2nc(C#N)c(Cl)s2)cc1C` [Compound 1.72], the pest or weed control at 100 ppm with Podosphaera leucotricha is no less than 70%. Further, the pest or weed control at 1000 ppm in data set [1] is no less than 70%. The chromatographic logP in the data set “physchem” was 1.74.
Regarding `CCN(C)/C=N/c1cc(C)c(Oc2nc(Cl)c(C(C)(C)C)s2)cc1C` [Compound 1.73], the pest or weed control at 1000 ppm in data set [1] was no less than 70%. For the same compound, the chromatographic logP in the data set “physchem” was 2.87.
In the case of `CCN(C)/C=N/c1cc(C)c(Oc2ncc(C(C)(C)C)s2)cc1C` [Compound 1.74], the pest or weed control at 100 ppm in the data set with Podosphaera leucotricha is no less than 70%. Further, the pest or weed control at 1000 ppm in data set [1] was no less than 70%. Moreover, the pest or weed control at 500 ppm in the data set on Alternaria solani was no less than 70%. In “physchem”, the chromatographic logP amounted to 2.18.
As to `CCN(C)/C=N/c1cc(C)c(Oc2nc(C(C)(C)C)cs2)cc1C` [Compound 1.75], the pest or weed control at 100 ppm in the data set with Podosphaera leucotricha is no less than 70%. Further, the pest or weed control at 1000 ppm in data set [1] is no less than 70%. Also, the chromatographic logP in the data set “physchem” stood at 2.26.
In the case of `Cc1cc(Oc2nc(C(C)C)ns2)ccc1/N=C/N(C)C(C)C` [Compound 2.1], the chromatographic logP in “physchem” stood at 1.77.
In the case of `CCN(C)/C=N/c1ccc(Oc2nc(C(C)C)ns2)cc1C` [Compound 2.2], the pest or weed control at 1000 ppm in data set [1] and in data set [2] was no less than 70% throughout. In the data set “physchem”, this compound registered a chromatographic logP of 1.57.
`Cc1cc(Oc2nc(C(C)C)ns2)c(C)cc1/N=C/N(C)C(C)C` [Compound 2.4]: the pest or weed control at 1000 ppm in data set [1] and in data set [2] was no less than 70% throughout. The same compound showed a chromatographic logP in “physchem” of 1.89.
In turn, `CCN(C)/C=N/c1cc(C)c(Oc2nc(Cl)ns2)cc1C` [Compound 2.5] registered a chromatographic logP in “physchem” of 1.56.
Still for that read-out and setting: then `Cc1cc(Oc2nc(Cl)ns2)c(C)cc1/N=C/N(C)C(C)C` [Compound 2.6], with 1.67.
With `Cc1cc(Oc2nnc(C(F)(F)F)s2)c(C)cc1/N=C/N(C)C(C)C` [Compound 3.1], the pest or weed control at 1000 ppm in data set [1] and in data set [2] was no less than 70% in each case. In the data set “physchem”, this compound yielded a chromatographic logP of 1.84.
As to `CCN(C)/C=N/c1cc(C)c(Oc2nnc(C(F)(F)F)s2)cc1C` [Compound 3.2], the pest or weed control at 1000 ppm in data set [1] and in data set [2] was no less than 70% each time. Moreover, the pest or weed control at 500 ppm in the data set with Alternaria solani was no less than 70%. Also, the chromatographic logP in the data set “physchem” turned out to be 1.78.
With `CCN(C)/C=N/c1cc(C)c(Oc2nnc(-c3ccccc3)s2)cc1C` [Compound 3.3], the chromatographic logP in the data set “physchem” worked out at 1.93.
On the same count and under the same terms, the figure for `Cc1cc(Oc2nnc(-c3ccccc3)s2)c(C)cc1/N=C/N(C)C(C)C` [Compound 3.6] is 2.
Compound `CSc1nnc(Oc2cc(C)c(/N=C/N(C)C(C)C)cc2C)s1` [Compound 3.18] displayed a chromatographic logP in the data set “physchem” of 1.82.
Take `Cc1cc(Oc2nnc(C(C)C)s2)c(C)cc1/N=C/N(C)C(C)C` [Compound 3.19]: the chromatographic logP in “physchem” came to 1.69.
Consider `CCN(C)/C=N/c1cc(C)c(Oc2nnc(SC)s2)cc1C` [Compound 3.21], for which, in the data set on Alternaria solani, the pest or weed control at 500 ppm was no less than 70%. For the same compound, in “physchem”, the chromatographic logP was 1.69.
Take `CCN(C)/C=N/c1cc(C)c(Oc2nnc(C(C)C)s2)cc1C` [Compound 3.22]: the chromatographic logP in the data set “physchem” was found to be 1.61.
Regarding `Cc1cc(Oc2nc(Cl)c(Cl)s2)c(C)cc1N` [II-1, 4-[(4,5-dichloro-1,3-thiazol-2-yl)oxy]-2,5-dimethylaniline], the chromatographic logP in “physchem” (pH 2.3) came to 3.4.
Same read-out and setting: then `CCN(C)/C=N/c1cc(C)c(O)cc1C` [IX-a, N-ethyl-N′-(4-hydroxy-2,5-dimethylphenyl)-N-methylimidoformamide], with 0.41.
